For one assay, the target named is T1, human Gcg receptor (Homo sapiens, UniProt P47871).
T1 construct: expressed in transfected cells; crude membranes
Put plainly: [125I]-Glucagon binding (SPA), human Gcg receptor. The note with it: read-out: hGLcgR Ki, nM (SEM, n). In outline:
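Scintillation counts are taken after membranes and WGA beads incubate and settle for 12 hours at room temperature. Buffer is 25 mM HEPES, pH 7.4, with CaCl2, MgCl2, bacitracin and Tween-20. Ki values, from four-parameter IC50 fits, are geometric means over independent days.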

The target in a further assay is T2, human GIP receptor (Homo sapiens, UniProt P48546).
T2 construct: expressed in transfected cells; crude membranes
T2 sequence (P48546 22-466): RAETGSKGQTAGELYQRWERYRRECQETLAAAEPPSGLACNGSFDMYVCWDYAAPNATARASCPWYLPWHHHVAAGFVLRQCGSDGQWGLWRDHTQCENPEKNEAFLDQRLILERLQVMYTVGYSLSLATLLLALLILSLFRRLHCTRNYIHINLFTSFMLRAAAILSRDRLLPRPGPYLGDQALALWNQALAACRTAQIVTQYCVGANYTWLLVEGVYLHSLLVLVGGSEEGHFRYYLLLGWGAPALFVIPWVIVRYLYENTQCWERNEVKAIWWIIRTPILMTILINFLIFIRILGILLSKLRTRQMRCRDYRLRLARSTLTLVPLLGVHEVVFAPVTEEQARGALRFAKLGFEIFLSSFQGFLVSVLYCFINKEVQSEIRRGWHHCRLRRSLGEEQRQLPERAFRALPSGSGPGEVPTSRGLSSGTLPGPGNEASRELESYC
Put plainly: [125I]-GIP binding (SPA), human GIP receptor. The conditions noted are these: read-out: hGIPR Ki, nM (SEM, n).

Assay [1] has as its target human GLP-1 receptor (GLP-1R) (Homo sapiens, UniProt P43220). Put plainly: cAMP pharmacological functional assay in presence of casein, hGLP-1R. Type of assay: cell-based. The note with it: HEK293 cells expressing hGLP-1R, 0.1% Casein, geometric mean; read-out: hGLP1R cAMP Rel EC50 nM (SEM, n).
Assay [2] deals with T3, gastric inhibitory peptide receptor (GIPR) (Homo sapiens, UniProt P48546).
T3 sequence (P48546 22-466): T2 sequence (P48546 22-466)
Put plainly: cAMP pharmacological functional assay in presence of casein, hGIPR. Type of assay: cell-based. The conditions noted are these: HEK293 cells expressing hGIPR, 0.1% Casein, geometric mean; read-out: hGIPR cAMP Rel EC50 nM (SEM, n).

The next assay has as its target human GLP-1R (Homo sapiens, UniProt P43220). Put plainly: [125I]-GLP-1 binding (SPA), human GLP-1 receptor. More on the design: expressed in transfected cells; crude membranes. The note with it: read-out: hGLP1R Ki, (nM) (SEM, n). In outline:
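Ki values are geometric means with SEM over independent replicates on different days, derived from IC50s fitted by four-parameter nonlinear regression. The assay used crude cell membranes in HEPES buffer, pH 7.4, containing CaCl2, MgCl2, bacitracin and TWEEN-20.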

Numbered stars: 1 amine (or outer) side, 2 acyl side, 3 side chain; on linkers, the order of the positions; unused ones are H or OH. Square brackets hold non-standard residues; d marks the D form. Side chains are listed from the residue outwards. Peptide text beside a SMILES is read from it. * marks the point of attachment. C20 diacid = O=C(O)CCCCCCCCCCCCCCCCCCC(=O)*; C18 diacid = O=C(O)CCCCCCCCCCCCCCCCC(=O)*; αMePhe(2-F) = C[C@](N)(Cc1ccccc1F)C(=O)O; γGlu = O=C(O)[C@H](CCC(=O)[*:2])N[*:1]; αMeF = C[C@](N)(Cc1ccccc1)C(=O)O; αMeL = CC(C)C[C@](C)(N)C(=O)O; AEEA = NCCOCCOCC(=O)O; Aib = CC(C)(N)C(=O)O

T1 sequence (P47871 26-477): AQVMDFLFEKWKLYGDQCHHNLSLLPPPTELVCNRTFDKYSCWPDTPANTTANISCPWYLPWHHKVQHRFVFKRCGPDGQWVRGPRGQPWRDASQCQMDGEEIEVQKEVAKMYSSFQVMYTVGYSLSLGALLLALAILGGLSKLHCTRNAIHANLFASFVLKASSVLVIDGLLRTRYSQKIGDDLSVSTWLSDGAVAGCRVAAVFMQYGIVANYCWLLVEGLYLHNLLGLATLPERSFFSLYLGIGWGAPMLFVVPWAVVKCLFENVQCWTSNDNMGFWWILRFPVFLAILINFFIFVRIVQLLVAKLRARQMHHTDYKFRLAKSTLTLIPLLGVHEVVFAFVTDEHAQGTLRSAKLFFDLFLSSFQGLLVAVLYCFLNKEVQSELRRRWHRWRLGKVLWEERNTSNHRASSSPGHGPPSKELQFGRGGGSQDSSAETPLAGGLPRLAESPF
human GLP-1R, sequence (P43220 24-463): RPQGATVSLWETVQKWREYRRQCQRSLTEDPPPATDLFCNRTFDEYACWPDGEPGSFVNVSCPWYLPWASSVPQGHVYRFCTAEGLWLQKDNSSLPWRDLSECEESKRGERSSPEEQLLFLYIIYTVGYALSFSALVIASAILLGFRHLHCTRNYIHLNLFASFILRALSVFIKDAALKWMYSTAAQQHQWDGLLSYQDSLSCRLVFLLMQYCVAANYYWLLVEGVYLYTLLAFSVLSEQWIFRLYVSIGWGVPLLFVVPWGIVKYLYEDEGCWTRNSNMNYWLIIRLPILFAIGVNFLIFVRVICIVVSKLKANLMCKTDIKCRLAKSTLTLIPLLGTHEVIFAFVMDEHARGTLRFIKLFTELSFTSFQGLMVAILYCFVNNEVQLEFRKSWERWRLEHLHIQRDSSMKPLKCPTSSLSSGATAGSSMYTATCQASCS
human GLP-1 receptor (GLP-1R), sequence (P43220 24-463): as above

In general, Ki refers to the dissociation constant of the complex between target and ligand, obtained from inhibition or displacement. The EC50 is the midpoint of the concentration-response curve. Turning to `CC[C@H](C)[C@H](NC(=O)[C@H](CC(C)C)NC(=O)[C@H](Cc1ccc(O)cc1)NC(=O)[C@@H](CCC(=O)O)NC(=O)[C@@H](NC(=O)[C@H](Cc1ccccc1)NC(=O)[C@H](CCC(=O)O)NC(=O)C(C)(C)NC(=O)[C@H](CCC(N)=O)NC(=O)[C@H](C)NC(=O)[C@H](CCCCNC(=O)COCCOCCNC(=O)COCCOCCNC(=O)CCCCCCCCCCCCCCCCC(=O)O)NC(=O)[C@H](CCC(=O)O)NC(=O)[C@H](CC(=O)O)NC(=O)[C@H](CC(C)C)NC(=O)[C@](C)(CC(C)C)NC(=O)[C@@H](NC(=O)[C@H](CO)NC(=O)[C@H](Cc1ccc(O)cc1)NC(=O)[C@H](CC(=O)O)NC(=O)[C@H](CO)NC(=O)[C@@H](NC(=O)[C@](C)(Cc1ccccc1F)NC(=O)[C@@H](NC(=O)CNC(=O)[C@H](CCC(=O)O)NC(=O)C(C)(C)NC(=O)[C@@H](N)Cc1ccc(O)cc1)[C@@H](C)O)[C@@H](C)O)[C@@H](C)CC)[C@@H](C)CC)C(=O)N[C@@H](CCC(=O)O)C(=O)NCC(=O)NCC(=O)N1CCC[C@H]1C(=O)N[C@@H](CO)C(=O)N[C@@H](CO)C(=O)NCC(=O)N[C@@H](C)C(=O)N1CCC[C@H]1C(=O)N1CCC[C@H]1C(=O)N1CCC[C@H]1C(=O)N[C@@H](CO)C(N)=O` [Example 214] (H-Y[Aib]EGT[αMePhe(2-F)]TSDYSI[αMeL]LDEK([AEEA-AEEA-C18 diacid])AQ[Aib]EFI[dE]YLIEGGPSSGAPPPS-NH2), the Ki on human Gcg receptor was found to be 126 nM; on human GIP receptor, 0.0304 nM; on human GLP-1R, 1.99 nM. Besides, the EC50 worked out at 0.0221 nM in assay [1] and 0.0251 nM in assay [2].
Consider `CC[C@H](C)[C@H](NC(=O)[C@H](CCCCN)NC(=O)[C@H](CC(=O)O)NC(=O)[C@H](CCCCNC(=O)COCCOCCNC(=O)COCCOCCNC(=O)CC[C@H](NC(=O)CCCCCCCCCCCCCCCCCCC(=O)O)C(=O)O)NC(=O)[C@H](CC(C)C)NC(=O)[C@@H](NC(=O)[C@H](CO)NC(=O)[C@H](Cc1ccc(O)cc1)NC(=O)[C@H](CC(=O)O)NC(=O)[C@H](CO)NC(=O)[C@@H](NC(=O)[C@](C)(Cc1ccccc1)NC(=O)[C@@H](NC(=O)CNC(=O)[C@H](CCC(=O)O)NC(=O)C(C)(C)NC(=O)[C@@H](N)Cc1ccc(O)cc1)[C@@H](C)O)[C@@H](C)O)[C@@H](C)CC)C(=O)N[C@@H](C)C(=O)N[C@@H](CCC(N)=O)C(=O)NC(C)(C)C(=O)N[C@@H](C)C(=O)N[C@@H](Cc1ccccc1)C(=O)N[C@H](C(=O)N[C@@H](CCC(=O)O)C(=O)N[C@@H](Cc1ccc(O)cc1)C(=O)N[C@@H](CC(C)C)C(=O)N[C@H](C(=O)N[C@@H](CCC(=O)O)C(=O)NCC(=O)NCC(N)=O)[C@@H](C)CC)[C@@H](C)CC` [Example 93] (H-Y[Aib]EGT[αMeF]TSDYSILK([AEEA-AEEA-γGlu-C20 diacid])DKIAQ[Aib]AFIEYLIEGG-NH2), for which the Ki at human Gcg receptor worked out at 15.7 nM; on human GIP receptor, 0.0859 nM; on human GLP-1R, 1.89 nM. In addition, the EC50 amounted to 0.115 nM in assay [1] and 0.185 nM in assay [2].

Values taken from US12252524B2, “GIP/GLP1 co-agonist compounds” (Eli Lilly and Company, priority 2018, dated 2025).
